Results from patent US20050209278A1, “Piperidinyl- and piperazinyl-sulfonylmethyl hydroxamic acids and their use as protease inhibitors” (priority 2002, published 2005).

Tests used:
MMP-2 = target: T1, MMP-2 (Homo sapiens, UniProt P08253); assay: In vitro MMP inhibition, IC50 determination (fluorogenic substrate I); assay type: biochemical; settings: value in parentheses; read-out: MMP-2 (IC-50)
T1 construct: made in house; host or cells: MMP-2-transfected p2AHT2 cells
T1 sequence (P08253 110-660): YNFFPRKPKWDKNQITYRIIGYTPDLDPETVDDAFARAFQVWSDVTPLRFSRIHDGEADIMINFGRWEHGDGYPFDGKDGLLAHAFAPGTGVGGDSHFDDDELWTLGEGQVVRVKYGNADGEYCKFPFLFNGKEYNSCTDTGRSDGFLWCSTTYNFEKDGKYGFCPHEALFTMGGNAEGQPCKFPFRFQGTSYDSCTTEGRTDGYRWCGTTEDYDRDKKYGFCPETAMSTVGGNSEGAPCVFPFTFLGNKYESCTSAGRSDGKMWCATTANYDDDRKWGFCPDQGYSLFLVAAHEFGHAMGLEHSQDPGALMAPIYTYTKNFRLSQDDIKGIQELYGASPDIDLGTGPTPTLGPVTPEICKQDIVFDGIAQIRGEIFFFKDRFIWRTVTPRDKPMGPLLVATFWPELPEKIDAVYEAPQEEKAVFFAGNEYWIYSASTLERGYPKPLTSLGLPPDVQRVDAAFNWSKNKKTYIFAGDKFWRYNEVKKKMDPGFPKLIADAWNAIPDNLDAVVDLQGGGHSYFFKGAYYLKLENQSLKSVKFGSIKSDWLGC
Experimental: (§1) Several hydroxamic acids and salts thereof were analyzed in in vitro assays to determine their ability to inhibit the MMP cleavage of peptide substrates. […] and IC50 constants were calculated from the assayed hydroxamic acid-MMP interactions.
(§2) Human recombinant MMP-1, MMP-2, MMP-9, MMP-13, and MMP-14 were used in this assay. All enzymes were prepared in Assignee's laboratories following usual laboratory procedures. Protocols for the preparation and use of these enzymes are available in the scientific literature. See, e.g., Enzyme Nomenclature (Academic Press, San Diego, Calif., 1992) (and the citations therein). See also, Freije et al., “Molecular cloning and expression of collagenase-3, a novel human matrix metalloproteinase produced by breast carcinomas,” J Biol. Chem., 269(24), 16766-16773 (1994).
The MMP-2 proenzyme was purified by gelatin Sepharose chromatography from MMP-2-transfected p2AHT2 cells provided by Dr. Gregory Goldberg of Washington University (St. Louis, Mo.).
(§3) All MMPs were activated using 4-aminophenylmercuric acetate (“APMA”, Sigma Chemical, St. Louis, Mo.) or trypsin. MMP-9 also was activated using human recombinant MMP-3 (purified in Assignee's laboratory following standard cloning and purification techniques).
(§4) Two fluorogenic, methoxycoumarin-containing polypeptide substrates were used in the MMP inhibition assays: [drawing 427] Here, “Dpa” is 3-(2,4-dinitrophenyl)-L-2,3-diaminopropionyl group, and “MCA” is 7-methoxycoumarin-4-yl acetyl. Substrate (I) was purchased from Baychem (Redwood City, Calif.), and substrate II was prepared Assignee's laboratory. Substrate I was used in the IC50 determination assays, while substrate II was used in the Ki determination assays. In the absence of MMP inhibitory activity, either substrate is cleaved at the Gly-Leu peptide bond. This cleavage separates the highly fluorogenic peptide from the 2,4-dinitrophenyl quencher, thus resulting in increase of fluorescent intensity.
(§5) The stock solutions of the assayed hydroxamic acids (or salts thereof) were prepared in 1% dimethyl sulfoxide (DMSO). These stock solutions were diluted in Buffer A (100 mM Tris-HCl, 100 mM NaCl, 10 mM CaCl2, 0.05% polyoxyethylene 23 lauryl ether, pH 7.5) to obtain solutions with different hydroxamic acid concentrations, i.e., assay solutions with different concentrations of the assayed MMP inhibitory compound. The experiment controls contained the same amount of Buffer A/DMSO as the assayed sample, but contained no hydroxamic acid (or salt thereof).
(§6) The assays from which the IC50 determinations were made were performed as follows. The MMPs were activated with either trypsin or APMA (4-aminophenylmercuric acetate, Sigma Chemical, St. Louis, Mo.). The assayed hydroxamic acid samples were incubated in Microfluor™ White Plates (Dynatech, Chantilly, Va.) and analyzed on a Perkin Elmer L550 plate reader (Norwalk, Conn.). The excitation wavelength was 328 nm, and the emission wavelength—415 nm. All samples (assayed hydroxamic acids and controls) were incubated in separate plates at room temperature in the presence of 4 μM of MMP substrate (I). As stated in the previous paragraph, samples containing varying concentrations of the same assayed hydroxamic acid were prepared. Inhibition was measured as a reduction in fluorescent intensity as a function of MMP inhibitor concentration.
The above protocols were used to determine IC50 constants and Ki values for the compounds in Examples 1-27 above. All values in Table 2 are given in nM units. The IC50 measurements are in parenthesis.

MMP-13 = target: T2, MMP-13 (Homo sapiens, UniProt P45452); assay: as above; assay type: biochemical; settings: value in parentheses; read-out: MMP-13 (IC-50)
T2 construct: made in house; host or cells: baculovirus / insect cells
Experimental: as §1, §2
The MMP-13 was obtained as a proenzyme from a full-length cDNA clone using baculovirus, as described by V. A. Luckow, “Insect Cell Expression Technology,” Protein Engineering: Principles and Practice, pp. 183-218 (edited by J. L. Cleland et al., Wiley-Liss, Inc., 1996). The expressed proenzyme was first purified over a heparin agarose column, and then over a chelating zinc chloride column. The proenzyme was then activated by APMA for use in the assay. Further details on baculovirus expression systems may be found in, for example, Luckow et al., J. Virol., 67, 4566-79 (1993). See also, O'Reilly et al, Baculovirus Expression Vectors: A Laboratory Manual (W.H. Freeman and Co., New York, N.Y., 1992). See also, King et al., The Baculovirus Expression System: A Laboratory Guide (Chapman & Hall, London, England, 1992).
as §3, §4, §5
as §6, with “concentration. […]” for “concentration.”

IC50 (MMP-2) [nM]	IC50 (MMP-13) [nM]	Compound
12.5	9.3	Cc1cc(N2CCN(S(=O)(=O)C3(C(=O)NO)CCOCC3)CC2)ccc1OC(C)C [Example 299]
0.1	0.1	C#CCN1CCC(C(=O)NO)(S(=O)(=O)N2CCN(c3ccc(OCCCC)cc3)CC2)CC1 [Example 303]
0.2	0.3	CCCCOc1ccc(N2CCN(S(=O)(=O)C3(C(=O)NO)CCN(C4CC4)CC3)CC2)cc1 [Example 301]
27.3	61.2	CS(=O)(=O)c1ccc(N2CCN(S(=O)(=O)C3(C(=O)NO)CCOCC3)CC2)cc1 [Example 300]

Continued, compound first:

Compound	IC50 (MMP-2) [nM]	IC50 (MMP-13) [nM]
COCCOc1ccc(N2CCN(S(=O)(=O)C3(C(=O)NO)CCN(C4CC4)CC3)CC2)cc1F [Example 297]	0.4	1.7
CCCCOc1ccc(N2CCN(S(=O)(=O)C3(C(=O)NO)CCN(C(=O)CN)CC3)CC2)cc1 [Example 292]	0.2	0.7
CCCCOc1ccc(N2CCN(S(=O)(=O)C3(C(=O)NO)CCN(c4ccc(C)cc4)CC3)CC2)cc1 [Example 295]	< 0.1	< 0.1
CCCCOc1ccc(N2CCN(S(=O)(=O)C3(C(=O)NO)CCN(CC4CC4)CC3)CC2)cc1 [Example 298]	1.1	0.9
CCCCOc1ccc(N2CCN(S(=O)(=O)C3(C(=O)NO)CCN(c4ccc(C)cc4)CC3)CC2)cc1F [Example 296]	< 0.1	0.9
CCCCOc1ccc(N2CCN(S(=O)(=O)C3(C(=O)NO)CCN(Cc4cccnc4)CC3)CC2)cc1F [Example 293]	0.3	0.8
